Measurements from PubChem BioAssay AID2060899 (Molecular Pharmacology Branch, DTP, NCI, 2025).

System: 565726-208-R1-J5-PDC complex spheroids, growth inhibition
Assay: Anticancer human tumor 565726-208-R1-J5-PDC patient-derived pancreatic adenocarcinoma cell line growth inhibition [RAS]
Details: for IC50: curve of first compound; for viability, T/C: stronger effect = lower value; active means viability on the fitted dose curve at most 10% of control; inactive means the rest
How it was run: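 Tumour cells grown as complex spheroids with HUVEC endothelial cells and mesenchymal stem cells, treated with RAS pathway inhibitor combinations. Each agent spans half-log steps from near clinical Cmax, or 10 microM where Cmax is unknown.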

[1] = second compound 0.000949 µM, first compound 0.0316 µM
[2] = second compound 0.000949 µM, first compound 0.1 µM
[3] = second compound 0.000949 µM, first compound 0.316 µM
[4] = second compound 0.000949 µM, first compound 1 µM
[5] = second compound 0.003 µM, first compound 0.0316 µM
[6] = second compound 0.003 µM, first compound 0.1 µM
[7] = second compound 0.003 µM, first compound 0.316 µM
[8] = second compound 0.003 µM, first compound 1 µM
[9] = second compound 0.00949 µM, first compound 0.0316 µM
[10] = second compound 0.00949 µM, first compound 0.1 µM
[11] = second compound 0.00949 µM, first compound 0.316 µM
[12] = second compound 0.00949 µM, first compound 1 µM
[13] = second compound 0.03 µM, first compound 0.0316 µM
[14] = second compound 0.03 µM, first compound 0.1 µM
[15] = second compound 0.03 µM, first compound 0.316 µM
[16] = second compound 0.03 µM, first compound 1 µM
[17] = second compound 0.0949 µM, first compound 0.0316 µM
[18] = second compound 0.0949 µM, first compound 0.1 µM
[19] = second compound 0.0949 µM, first compound 0.316 µM
[20] = second compound 0.0949 µM, first compound 1 µM
[21] = second compound 0.3 µM, first compound 0.0316 µM
[22] = second compound 0.3 µM, first compound 0.1 µM
[23] = second compound 0.3 µM, first compound 0.316 µM
[24] = second compound 0.3 µM, first compound 1 µM
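Further: spheroids exposed to compounds for seven days before readout.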
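Wherever viability, T/C is given: 100% = DMSO vehicle control viability.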

CC(=O)OC12COC1CC(O)C1(C)C(=O)C(O)C3=C(C)C(OC(=O)C(O)C(NC(=O)OC(C)(C)C)c4ccccc4)CC(O)(C(OC(=O)c4ccccc4)C21)C3(C)C (stereo unspecified) + CCn1c(-c2cccnc2C(C)OC)c2c3cc(ccc31)N1CCOC(CC(NC(=O)C(C(C)C)N(C)C(=O)C3(F)CCN(C(=O)C#CC(C)(C)N(C)C)CC3)C(=O)N3CCCC(N3)C(=O)OCC(C)(C)C2)C1
< 31.6 nM: IC50 (second compound 0.000949 µM) | IC50 (second compound 0.003 µM) | IC50 (second compound 0.00949 µM) | IC50 (second compound 0.03 µM) | IC50 (second compound 0.0949 µM) | IC50 (second compound 0.3 µM)
inactive: viability, T/C [1] 15.9% | viability, T/C [2] 14.2% | viability, T/C [3] 15.5% | viability, T/C [4] 16.5% | viability, T/C (second compound 0.000949 µM, first compound 3.16 µM) 19.8% | viability, T/C (second compound 0.000949 µM, first compound 10 µM) 21.5% | viability, T/C [5] 17.4% | viability, T/C [6] 16.5% | viability, T/C [7] 16.2% | viability, T/C [8] 14.6% | viability, T/C (second compound 0.003 µM, first compound 3.16 µM) 19.8% | viability, T/C (second compound 0.003 µM, first compound 10 µM) 22.8% | viability, T/C [9] 17.3% | viability, T/C [10] 15.3% | viability, T/C [11] 15.9% | viability, T/C [12] 15.7% | viability, T/C (second compound 0.00949 µM, first compound 3.16 µM) 20.1% | viability, T/C (second compound 0.00949 µM, first compound 10 µM) 22.8% | viability, T/C [13] 16.3% | viability, T/C [14] 16.2% | viability, T/C [15] 15% | viability, T/C [16] 17% | viability, T/C (second compound 0.03 µM, first compound 3.16 µM) 21.6% | viability, T/C (second compound 0.03 µM, first compound 10 µM) 25.4% | viability, T/C [17] 15.3% | viability, T/C [18] 14.8% | viability, T/C [19] 13.2% | viability, T/C [20] 15.3% | viability, T/C (second compound 0.0949 µM, first compound 3.16 µM) 20.2% | viability, T/C (second compound 0.0949 µM, first compound 10 µM) 24.3% | viability, T/C [21] 14.9% | viability, T/C [22] 15.8% | viability, T/C [23] 14.4% | viability, T/C [24] 13.9% | viability, T/C (second compound 0.3 µM, first compound 3.16 µM) 17.6% | viability, T/C (second compound 0.3 µM, first compound 10 µM) 26.2%

CCc1c2c(nc3ccc(O)cc13)-c1cc3c(c(=O)n1C2)COC(=O)[C@]3(O)CC + CCn1c(-c2cccnc2C(C)OC)c2c3cc(ccc31)N1CCOC(CC(NC(=O)C(C(C)C)N(C)C(=O)C3(F)CCN(C(=O)C#CC(C)(C)N(C)C)CC3)C(=O)N3CCCC(N3)C(=O)OCC(C)(C)C2)C1
active: viability, T/C (second compound 0.000949 µM, first compound 0.0949 µM) 8.88% | viability, T/C (second compound 0.000949 µM, first compound 0.3 µM) 4.44% | viability, T/C (second compound 0.003 µM, first compound 0.0949 µM) 10.2% | viability, T/C (second compound 0.003 µM, first compound 0.3 µM) 5.03% | viability, T/C (second compound 0.00949 µM, first compound 0.0949 µM) 8.85% | viability, T/C (second compound 0.00949 µM, first compound 0.3 µM) 4.19% | viability, T/C (second compound 0.03 µM, first compound 0.0949 µM) 8.23% | viability, T/C (second compound 0.03 µM, first compound 0.3 µM) 3.69% | viability, T/C (second compound 0.0949 µM, first compound 0.0949 µM) 6% | viability, T/C (second compound 0.0949 µM, first compound 0.3 µM) 2.81% | viability, T/C (second compound 0.3 µM, first compound 0.03 µM) 8.71% | viability, T/C (second compound 0.3 µM, first compound 0.0949 µM) 5.1% | viability, T/C (second compound 0.3 µM, first compound 0.3 µM) 2.77%
1.98 nM: IC50 (second compound 0.0949 µM)
1.64 nM: IC50 (second compound 0.3 µM)
inactive: viability, T/C (second compound 0.000949 µM, first compound 0.000949 µM) 79.2% | viability, T/C (second compound 0.000949 µM, first compound 0.003 µM) 39.5% | viability, T/C (second compound 0.000949 µM, first compound 0.00949 µM) 25.5% | viability, T/C (second compound 0.000949 µM, first compound 0.03 µM) 14.4% | viability, T/C (second compound 0.003 µM, first compound 0.000949 µM) 80.3% | viability, T/C (second compound 0.003 µM, first compound 0.003 µM) 33.2% | viability, T/C (second compound 0.003 µM, first compound 0.00949 µM) 23.6% | viability, T/C (second compound 0.003 µM, first compound 0.03 µM) 15.5% | viability, T/C (second compound 0.00949 µM, first compound 0.000949 µM) 79% | viability, T/C (second compound 0.00949 µM, first compound 0.003 µM) 38.5% | viability, T/C (second compound 0.00949 µM, first compound 0.00949 µM) 27% | viability, T/C (second compound 0.00949 µM, first compound 0.03 µM) 13.2% | viability, T/C (second compound 0.03 µM, first compound 0.000949 µM) 75.5% | viability, T/C (second compound 0.03 µM, first compound 0.003 µM) 34.5% | viability, T/C (second compound 0.03 µM, first compound 0.00949 µM) 23.8% | viability, T/C (second compound 0.03 µM, first compound 0.03 µM) 13.5% | viability, T/C (second compound 0.0949 µM, first compound 0.000949 µM) 73.3% | viability, T/C (second compound 0.0949 µM, first compound 0.003 µM) 35.2% | viability, T/C (second compound 0.0949 µM, first compound 0.00949 µM) 20.5% | viability, T/C (second compound 0.0949 µM, first compound 0.03 µM) 11.1% | viability, T/C (second compound 0.3 µM, first compound 0.000949 µM) 67.1% | viability, T/C (second compound 0.3 µM, first compound 0.003 µM) 30% | viability, T/C (second compound 0.3 µM, first compound 0.00949 µM) 16.7%
2.33 nM: IC50 (second compound 0.00949 µM)
2.11 nM: IC50 (second compound 0.003 µM)
2.06 nM: IC50 (second compound 0.03 µM)
2.34 nM: IC50 (second compound 0.000949 µM)

Nc1ccn(C2OC(CO)C(O)C2(F)F)c(=O)n1 (stereo unspecified) + CCn1c(-c2cccnc2C(C)OC)c2c3cc(ccc31)N1CCOC(CC(NC(=O)C(C(C)C)N(C)C(=O)C3(F)CCN(C(=O)C#CC(C)(C)N(C)C)CC3)C(=O)N3CCCC(N3)C(=O)OCC(C)(C)C2)C1
70.4 nM: IC50 (second compound 0.03 µM)
72.3 nM: IC50 (second compound 0.00949 µM)
inactive: viability, T/C (second compound 0.000949 µM, first compound 0.00316 µM) 107% | viability, T/C (second compound 0.000949 µM, first compound 0.01 µM) 91.8% | viability, T/C [1] 68.1% | viability, T/C [2] 47% | viability, T/C [3] 32.3% | viability, T/C [4] 27.9% | viability, T/C (second compound 0.003 µM, first compound 0.00316 µM) 110% | viability, T/C (second compound 0.003 µM, first compound 0.01 µM) 88.6% | viability, T/C [5] 69.2% | viability, T/C [6] 40.9% | viability, T/C [7] 38.6% | viability, T/C [8] 29.6% | viability, T/C (second compound 0.00949 µM, first compound 0.00316 µM) 97.5% | viability, T/C (second compound 0.00949 µM, first compound 0.01 µM) 91.2% | viability, T/C [9] 66% | viability, T/C [10] 42.5% | viability, T/C [11] 36.1% | viability, T/C [12] 26.2% | viability, T/C (second compound 0.03 µM, first compound 0.00316 µM) 90.1% | viability, T/C (second compound 0.03 µM, first compound 0.01 µM) 90.2% | viability, T/C [13] 62.7% | viability, T/C [14] 43.3% | viability, T/C [15] 33.6% | viability, T/C [16] 22.8% | viability, T/C (second compound 0.0949 µM, first compound 0.00316 µM) 85.1% | viability, T/C (second compound 0.0949 µM, first compound 0.01 µM) 88.4% | viability, T/C [17] 71.9% | viability, T/C [18] 43% | viability, T/C [19] 31.4% | viability, T/C [20] 24.4% | viability, T/C (second compound 0.3 µM, first compound 0.00316 µM) 81.8% | viability, T/C (second compound 0.3 µM, first compound 0.01 µM) 75.4% | viability, T/C [21] 52.6% | viability, T/C [22] 37.6% | viability, T/C [23] 30.8% | viability, T/C [24] 21.2%
44 nM: IC50 (second compound 0.3 µM)
82.4 nM: IC50 (second compound 0.000949 µM)
77.2 nM: IC50 (second compound 0.003 µM) | IC50 (second compound 0.0949 µM)
